# Measurements from patent publication US20230081426A1, “COMPOUNDS AND METHODS FOR KRAS MODULATION AND INDICATIONS THEREFOR” (Plexxikon Inc., priority 2020, published 2023).
# What was measured:
# [1] = molecular target: T1, G12V-mutant human KRAS (amino acid residues 1-188) (Homo sapiens, UniProt P01116, G12V); assay: KRAS Binding Competition Assay (AlphaScreen; biotinylated KRpep-2d analogue), G12V; details: geometric mean, read-out: KRAS GMean IC50 (uM) MUTATION: G12V
# T1 construct: G12V-mutant human KRAS (amino acid residues 1-188) with FLAG tag was purified from E. coli; made in house; host or cells: E. coli
# [2] = molecular target: T2, G12D-mutant human KRAS (amino acid residues 1-188) (Homo sapiens, UniProt P01116, G12D); assay: KRAS Binding Disruption Assay (AlphaScreen; biotinylated KRpep-2d analogue or RAF1-RBD), G12D; details: KRAS G12D; geometric mean; read-out: KRAS GMean IC50 (uM) MUTATION: G12D
# T2 construct: G12D or G12C-mutant human KRAS (amino acid residues 1-188) with FLAG tag; made in house; host or cells: E. coli
# Outline: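 Compounds are titrated against 5-20 nM mutant KRAS and 5-20 nM of either a biotinylated KRpep-2d analogue or RAF1-RBD, incubated 1 h at 25° C. Disruption is detected as reduced Alpha signal after 1 h with donor and acceptor beads at 10 μg/mL.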
SMILES,IC50 [1],IC50 [2]
"CN1CCCC1COc1nc(N2C[C@H]3CC[C@@H](C2)N3C(=O)NC2COC(C)(C)C2)c2ccc(-c3cc(O)cc4ccccc34)c(F)c2n1 (stereo partly drawn) [P-0417, (1R,5S)-N-(5,5-dimethyltetrahydrofuran-3-yl)-3-(8-fluoro-7-(3-hydroxynaphthalen-1-yl)-2-((1-methylpyrrolidin-2-yl)methoxy)quinazolin-4-yl)-3,8-diazabicyclo[3.2.1]octane-8-carboxamide]",0.0001 to 10 µM,0.0001 to 10 µM
"CN1CCC[C@H]1COc1nc(N2C[C@H]3CC[C@@H](C2)N3)c2cc(Cl)c(-c3cc(O)cc4ccccc34)cc2n1 [P-0043, 4-(4-((1R,5S)-3,8-diazabicyclo[3.2.1]octan-3-yl)-6-chloro-2-(((S)-1-methylpyrrolidin-2-yl)methoxy)quinazolin-7-yl)naphthalen-2-ol]",10 to 100 µM,0.0001 to 10 µM
"CN1CCC[C@H]1COc1nc(N2[C@@H]3CC[C@H]2CN(C(=O)Nc2cnc[nH]2)C3)c2ccc(-c3cc(O)cc4ccccc34)cc2n1 [P-0347, (1R,5S)-8-(7-(3-hydroxynaphthalen-1-yl)-2-(((S)-1-methylpyrrolidin-2-yl)methoxy)quinazolin-4-yl)-N-(1H-imidazol-5-yl)-3,8-diazabicyclo[3.2.1]octane-3-carboxamide]",0.0001 to 10 µM,0.0001 to 10 µM
"Cc1cc(C(=O)N2[C@@H]3CC[C@H]2CN(c2nc(OCC45CCCN4CCC5)nc4cc(-c5cc(O)cc6ccccc56)ccc24)C3)[nH]c(=O)n1 [P-0109, 6-((1R,5S)-3-(7-(3-hydroxynaphthalen-1-yl)-2-((tetrahydro-1H-pyrrolizin-7a(5H)-yl)methoxy)quinazolin-4-yl)-3,8-diazabicyclo[3.2.1]octane-8-carbonyl)-4-methylpyrimidin-2(1H)-one]",10 to 100 µM,0.0001 to 10 µM
"CN1CCC[C@H]1COc1nc(N2[C@@H]3CC[C@H]2CN(C(=O)Nc2ccn[nH]2)C3)c2ccc(-c3cc(O)cc4ccccc34)cc2n1 [P-0271, (1R,5S)-8-(7-(3-hydroxynaphthalen-1-yl)-2-(((S)-1-methylpyrrolidin-2-yl)methoxy)quinazolin-4-yl)-N-(1H-pyrazol-5-yl)-3,8-diazabicyclo[3.2.1]octane-3-carboxamide]",0.0001 to 10 µM,10 to 100 µM
"Oc1cc(-c2ccc3c(N4C[C@H]5CC[C@@H](C4)N5)nc(OC[C@@H]4CCCN4CCF)nc3c2)c2ccccc2c1 [P-0077, 4-(4-((1R,5S)-3,8-diazabicyclo[3.2.1]octan-3-yl)-2-(((S)-1-(2-fluoroethyl)pyrrolidin-2-yl)methoxy)quinazolin-7-yl)naphthalen-2-ol]",10 to 100 µM,0.0001 to 10 µM
"CN1CCC[C@H]1COc1nc(N2C[C@H]3CC[C@@H](C2)N3)c2ccc(-c3ccc(Cl)c(N)c3)cc2n1 [P-0177, 5-(4-((1R,5S)-3,8-diazabicyclo[3.2.1]octan-3-yl)-2-(((S)-1-methylpyrrolidin-2-yl)methoxy)quinazolin-7-yl)-2-chloroaniline]",10 to 100 µM,10 to 100 µM
"CN1CCC[C@H]1COc1nc(N2[C@@H]3CC[C@H]2CNC3)c2ccc(-c3cc(O)cc4cccnc34)cc2n1 [P-0262, 8-(4-((1R,5S)-3,8-diazabicyclo[3.2.1]octan-8-yl)-2-(((S)-1-methylpyrrolidin-2-yl)methoxy)quinazolin-7-yl)quinolin-6-ol]",10 to 100 µM,10 to 100 µM
"CC(C)(COc1nc(N2C[C@H]3CC[C@@H](C2)N3)c2ccc(-c3cc(O)cc4ccccc34)c(F)c2n1)C(N)=O [P-0620, 3-((4-((1R,5S)-3,8-diazabicyclo[3.2.1]octan-3-yl)-8-fluoro-7-(3-hydroxynaphthalen-1-yl)quinazolin-2-yl)oxy)-2,2-dimethylpropanamide]",10 to 100 µM,0.0001 to 10 µM
"CN1CCN(CCCC(=O)N2C3CCC2CN(c2nc(OC[C@@H]4CCCN4C)nc4c(F)c(-c5cc(O)cc6ccccc56)ccc24)CC3)CC1 (stereo partly drawn) [P-0247, 1-(3-(8-fluoro-7-(3-hydroxynaphthalen-1-yl)-2-(((S)-1-methylpyrrolidin-2-yl)methoxy)quinazolin-4-yl)-3,9-diazabicyclo[4.2.1]nonan-9-yl)-4-(4-methylpiperazin-1-yl)butan-1-one]",10 to 100 µM,10 to 100 µM
"CN1CCC[C@H]1COc1nc(N2CC3CCCC2CN3)c2ccc(-c3cc(O)cc4ccccc34)c(F)c2n1 (stereo partly drawn) [P-0296, 4-(4-(6,8-diazabicyclo[3.2.2]nonan-6-yl)-8-fluoro-2-(((S)-1-methylpyrrolidin-2-yl)methoxy)quinazolin-7-yl)naphthalen-2-ol]",10 to 100 µM,0.0001 to 10 µM
"CN1CCC[C@H]1COc1nc(N2[C@@H]3CC[C@H]2CN(C(=O)[C@H]2CCCN2)C3)c2ccc(-c3cc(O)cc4ccccc34)cc2n1 [P-0205, 4-((1R,5S)-3-(D-prolyl)-3,8-diazabicyclo[3.2.1]octan-8-yl)-7-(3-hydroxynaphthalen-1-yl)-2-(((S)-1-methylpyrrolidin-2-yl)methoxy)quinazoline]",100 to 1000 µM,10 to 100 µM
"Oc1cc(-c2ccc3c(N4[C@@H]5CC[C@H]4CNC5)nc(Cc4ccncc4)nc3c2)c2ccccc2c1 [P-0301, 4-(4-((1R,5S)-3,8-diazabicyclo[3.2.1]octan-8-yl)-2-(pyridin-4-ylmethyl)quinazolin-7-yl)naphthalen-2-ol]",0.0001 to 10 µM,0.0001 to 10 µM
"CN(C)c1ccc(/C=C/c2nc(N3C[C@H]4CC[C@@H](C3)N4)c3cc(Cl)c(-c4c(O)cccc4F)c(F)c3n2)cc1 [P-0355, 2-(4-((1R,5S)-3,8-diazabicyclo[3.2.1]octan-3-yl)-6-chloro-2-((E)-4-(dimethylamino)styryl)-8-fluoroquinazolin-7-yl)-3-fluorophenol]",0.0001 to 10 µM,0.0001 to 10 µM
"CN1CCC[C@H]1COc1nc(N2C[C@H]3CC[C@@H](C2)N3)c2ccc(-c3cc(O)c(F)c4ccccc34)cc2n1 [P-0385, 4-(4-((1R,5S)-3,8-diazabicyclo[3.2.1]octan-3-yl)-2-(((S)-1-methylpyrrolidin-2-yl)methoxy)quinazolin-7-yl)-1-fluoronaphthalen-2-ol]",10 to 100 µM,0.0001 to 10 µM
"CN1CCC[C@H]1COc1nc(N2C[C@H]3CC[C@@H](C2)N3)c2cc(F)c(-c3c(O)cccc3F)c(F)c2n1 [P-0302, 2-(4-((1R,5S)-3,8-diazabicyclo[3.2.1]octan-3-yl)-6,8-difluoro-2-(((S)-1-methylpyrrolidin-2-yl)methoxy)quinazolin-7-yl)-3-fluorophenol]",10 to 100 µM,0.0001 to 10 µM
"CN1CCC[C@H]1COc1nc(N2C[C@H]3CC[C@@H](C2)N3)c2ccc(-c3ccc4c(c3)NC(=O)CO4)cc2n1 [P-0159, 6-(4-((1R,5S)-3,8-diazabicyclo[3.2.1]octan-3-yl)-2-(((S)-1-methylpyrrolidin-2-yl)methoxy)quinazolin-7-yl)-2H-benzo[b][1,4]oxazin-3(4H)-one]",100 to 1000 µM,100 to 1000 µM
"Fc1c(-c2c[nH]c3cccc(C(F)F)c23)ccc2c(N3C[C@H]4CC[C@@H](C3)N4)nc(OCC34CCCN3CCC4)nc12 [P-0625, 4-((1R,5S)-3,8-diazabicyclo[3.2.1]octan-3-yl)-7-(4-(difluoromethyl)-1H-indol-3-yl)-8-fluoro-2-((tetrahydro-1H-pyrrolizin-7a(5H)-yl)methoxy)quinazoline]",0.0001 to 10 µM,0.0001 to 10 µM
"CN1CCC[C@H]1COc1nc(N2C[C@H]3CC[C@@H](C2)N3C(=O)CS(N)(=O)=O)c2ccc(-c3cc(O)cc4ccccc34)cc2n1 [P-0407, 2-((1R,5S)-3-(7-(3-hydroxynaphthalen-1-yl)-2-(((S)-1-methylpyrrolidin-2-yl)methoxy)quinazolin-4-yl)-3,8-diazabicyclo[3.2.1]octan-8-yl)-2-oxoethane-1-sulfonamide]",0.0001 to 10 µM,0.0001 to 10 µM
"CN1CCC[C@H]1COc1nc(N2C[C@H]3CC[C@@H](C2)N3)c2ccc(N3CC(O)Cc4ccccc43)c(F)c2n1 (stereo partly drawn) [P-0307, 1-(4-((1R,5S)-3,8-diazabicyclo[3.2.1]octan-3-yl)-8-fluoro-2-(((S)-1-methylpyrrolidin-2-yl)methoxy)quinazolin-7-yl)-1,2,3,4-tetrahydroquinolin-3-ol]",10 to 100 µM,0.0001 to 10 µM
"CN1CCC[C@@H](COc2nc(N3C[C@H]4CC[C@@H](C3)N4)c3ccc(-c4cc(O)cc5ccccc45)cc3n2)C1 [P-0078, 4-(4-((1R,5S)-3,8-diazabicyclo[3.2.1]octan-3-yl)-2-(((R)-1-methylpiperidin-3-yl)methoxy)quinazolin-7-yl)naphthalen-2-ol]",10 to 100 µM,0.0001 to 10 µM
"Cc1cccc2c(Nc3ccc4c(N5C[C@H]6CC[C@@H](C5)N6)nc(OC[C@@H]5CCCN5C)nc4c3F)n[nH]c12 [P-0437, 4-((1R,5S)-3,8-diazabicyclo[3.2.1]octan-3-yl)-8-fluoro-N-(7-methyl-1H-indazol-3-yl)-2-(((S)-1-methylpyrrolidin-2-yl)methoxy)quinazolin-7-amine]",100 to 1000 µM,10 to 100 µM
"CN1CCC[C@H]1COc1nc(N2[C@@H]3CC[C@H]2CNC3)c2ccc(-c3cncc(Br)c3Cl)cc2n1 [P-0260, 4-((1R,5S)-3,8-diazabicyclo[3.2.1]octan-8-yl)-7-(5-bromo-4-chloropyridin-3-yl)-2-(((S)-1-methylpyrrolidin-2-yl)methoxy)quinazoline]",10 to 100 µM,10 to 100 µM
"CN1CCC[C@H]1COc1nc(N2C[C@H]3CC[C@@H](C2)N3)c2ccc(-c3nc(N)cc4ccccc34)c(F)c2n1 [P-0378, 1-(4-((1R,5S)-3,8-diazabicyclo[3.2.1]octan-3-yl)-8-fluoro-2-(((S)-1-methylpyrrolidin-2-yl)methoxy)quinazolin-7-yl)isoquinolin-3-amine]",10 to 100 µM,0.0001 to 10 µM
